Publication PMC6259260, “3-Acetyloxy-2-cyano-2-(alkylaminocarbamoyl)propyl Groups as Biodegradable Protecting Groups of Nucleoside 5´-mono-Phosphates” (Molecules, 2011)
Where two headings read alike, the source gives them in different places. Marks after values point to notes of the source that are not given here. Blank lines part the entries; values can stand above or below the compound they belong to.

How the values were obtained:
[1] = parameters: method as in PMID 19462989; conditions: non-enzymatic, cited from earlier work; for half-life for the disappearance: pH 7.5, 25 °C
[2] = test system: hog liver carboxyesterase (HLE); assay: Hog liver carboxyesterase (HLE)-catalyzed hydrolysis/deprotection followed by HPLC; format: in vitro ADME; conditions: for half-life at 0.4 mmol L^-1: hog liver carboxyesterase (HLE); for level of accumulation of the intermediate, of the initial concentration of 1: during HLE (26 units mL^-1) hydrolysis of 1, pH 7.5, 37 °C
Protocol: The subsequent retro-aldol condensation of 14 to diester 4 ([M+H]^+ = 595.3; Reaction C) was, however, so fast that the amount of 14 remained less than 5% of the initial concentration of 1.
(§1) The reactions were carried out in sealed tubes immersed in a thermostated water bath (37.0 ± 0.1 °C). The oxonium ion concentration of the reaction solution (3.5 mL) was adjusted with glycine, 2-[4-(2-hydroxyethyl)piperazin-1-yl)]ethanesulfonic acid (HEPES) and 2-(N-morpholino)ethanesulfonic acid (MES) buffers. The ionic strength of the solutions was adjusted to 0.1 mol L^-1 with sodium chloride. The hydronium ion concentration of the buffer solutions was calculated with the aid of the known pKa values of the buffer acid under the experimental conditions. The initial substrate concentration was ca. 0.4 mmol L^-1.
The enzymatic hydrolysis was carried out with Hog Liver Esterase (26 units mL^-1) in a 2-[4-(2-hydroxyethyl)piperazin-1-yl)]ethanesulfonic acid (HEPES) buffer (0.040/0.024 mol L^-1) at pH 7.5 and 37 °C. The samples (200 μL) withdrawn at appropriate intervals were made acidic (pH 2) with 1 mol L^-1 aqueous hydrogen chloride to inactivate the enzyme and to quench the hydrolysis, cooled in an ice-bath and filtered with minisart RC 4 filters (0.45 μm). The composition of the samples was analyzed on an ODS Hypersil C18 column (4 × 250 mm 5 μm, flow rate 1 mL min^-1), using a mixture of acetic acid/sodium acetate buffer (0.045/0.015 mol L^-1) and MeCN, containing ammonium chloride (0.1 mol L^-1). A good separation of the product mixtures of 2 was obtained on using a 5 min isocratic elution with the buffer containing 2% MeCN, followed by a linear gradient (23 min) up to 40.0% MeCN. Signals were recorded on a UV-detector at a wavelength of 267 nm. The reaction products were identified by the mass spectra (LC/MS) using a mixture of water and acetonitrile containing a formic acid (0.1%) as an eluent (Gemini C18 column (2 × 150 mm 5 μm, flow rate 200 μL min^-1). The first order rate constants for the non-enzymatic hydrolysis of triester 1 were obtained by applying first-order rate-law to the diminution of the concentration of the starting material. The enzymatic deacetylations obeyed first-order kinetics at the high HLE concentrations employed.

[3] = Non-enzymatic hydrolysis (hydrolytic stability) in buffer followed by RP HPLC; format: physicochemical; conditions: pH 7.5, 37 °C
Protocol: Hydrolysis of triester 1 was studied at pH 7.5 and 37 °C by analyzing the composition of the aliquots withdrawn from the reaction mixture at appropriate time intervals by RP HPLC. The products formed were identified by spiking with authentic samples and by mass spectrometric analysis (HPLC/ESI-MS). At pH 7.5-10, hydrolysis of the first acetic ester linkages of 1 (Reaction A in Scheme 4) was first-order in hydroxide-ion concentration. […] The subsequent departure of the remnants of this protecting group by retro-aldol condensation gave diester 4 (Route C) without accumulation of the monodeacetylated triester 14 as an intermediate. […]
The reactions were carried out in sealed tubes immersed in a thermostated water bath (37.0 ± 0.1 °C). […] The hydronium ion concentration of the buffer solutions was calculated with the aid of the known pKa values of the buffer acid under the experimental conditions. […]
The enzymatic hydrolysis was carried out with Hog Liver Esterase (26 units mL^-1) in a 2-[4-(2-hydroxyethyl)piperazin-1-yl)]ethanesulfonic acid (HEPES) buffer (0.040/0.024 mol L^-1) at pH 7.5 and 37 °C. […] The composition of the samples was analyzed on an ODS Hypersil C18 column (4 × 250 mm 5 μm, flow rate 1 mL min^-1), using a mixture of acetic acid/sodium acetate buffer (0.045/0.015 mol L^-1) and MeCN, containing ammonium chloride (0.1 mol L^-1). […]

[4] = test system: hog liver carboxyesterase (HLE); assay: HLE-triggered hydrolysis in the presence of glutathione (GSH), followed by HPLC-ESI-MS; format: in vitro ADME; conditions: [GSH] = 5.4 mM
Protocol: The hydrolytic reactions of 1 was also carried out in the presence of glutathione ([GSH] = 5.4 mM) and carboxyesterase ([HLE] = 28.0 units mL^-1) in a 2-(N-morpholino)ethanesulfonic acid (MES) buffer (0.005/0.005 mol L^-1) at pH 6.2 and 37 °C. Under these conditions, the half-live for the deacetylation of 1 was 18 h. In 2 days, the starting material was converted almost quantitatively to a mixture of acetylated and deacetylated phosphodiester 4 and 16 ([4]/[16] is 1:1). At this stage, 2-cyano-N-(2-phenyl)ethylacrylamide (17) was captured as the glutathione conjugate (18; tR = 24.3 min, Route E). Product 18 was detected by both HPLC and LC-MS analysis ([M+H]^+ = 508.8; see Figure 3). In addition, glutathione was converted to its oxidized form glutathione disulfide (GSSG; [M+H]^+ = 613.5 and tR = 9.9 min).
as §1, with “The initial substrate concentration was ca. 0.4 mmol L^-1.” left out

[5] = test system: hog liver carboxyesterase (HLE); parameters: method as in PMID 19462989; conditions: cited from earlier work
[6] = HLE 26 units mL^-1, pH 7.5, 25 °C
[7] = HLE 26 units mL^-1, pH 7.5, 37 °C

capture of the electrophilic by-product by glutathione ([4]; [HLE] = 28.0 units mL^-1, pH 6.2, 37 °C, detected as conjugate 18): largely trapped by glutathione
Structure (SMILES): C=C(C#N)C(=O)NCCc1ccccc1 [compound 17, 2-cyano-N-(2-phenylethyl)acrylamide]

level of accumulation of the intermediate, of the initial concentration of 1 [2]: below 5%
Structure (SMILES): Cc1cn(C2CC(O)C(COP(=O)(O)OCC(C#N)(CO)C(=O)NCCc3ccccc3)O2)c(=O)[nH]c1=O (stereo not shown) [compound 16]

share of deacetylation to 15 (Reaction B) in the total disappearance of 14 [2, 7]: approximately 10%
share of retro-aldol condensation to diester 4 in the overall breakdown of 14 ([2]; HLE, pH 7.5, 37 °C): 90%
level of accumulation of the intermediate, of the initial concentration of 1 [2]: less than 5%
Structure (SMILES): CC(=O)OCC(C#N)(COP(=O)(OCC1OC(n2cc(C)c(=O)[nH]c2=O)CC1O)OCC(C#N)(CO)C(=O)NCCc1ccccc1)C(=O)NCCc1ccccc1 (stereo not shown) [compound 14]

Second part, the compound before the results:

Structure (SMILES): CCOC(=O)C(COC(C)=O)(COP(=O)(O)OC[C@H]1O[C@@H](n2cc(C)c(=O)[nH]c2=O)C[C@@H]1O)C(=O)OCC [compound 6]
half-life for the disappearance [1]: 160.4 days

Structure (SMILES): CC(=O)OCC(C#N)(COP(=O)(OCC1OC(n2cc(C)c(=O)[nH]c2=O)CC1O)OCC(C#N)(COC(C)=O)C(=O)NCCc1ccccc1)C(=O)NCCc1ccccc1 (stereo not shown) [compound 1, Thymidine 5´-bis[3-acetyloxy-2-cyano-2-(2-phenylethylcarbamoyl)propyl]phosphate]
conversion to 5´-TMP, times as fast as 3 (comparison of half-lives of Reaction D) ([2]; HLE, pH 7.5, 37 °C): 3 times
half-life at 0.4 mmol L^-1 ([2]; pig, HLE 26 units mL^-1, pH 7.5, 37 °C, I = 0.1 mol L^-1, read-out: t1/2 Reaction A (enzymatic deacetylation of triester, disappearance of starting material)): 0.0633 h
half-life at 0.4 mmol L^-1 ([3]; aqueous buffer (glycine, HEPES or MES buffers), no enzyme, read-out: half-life, hydrolysis of the first acetic ester linkage (Reaction A) (converted)): 28 h
first-order rate constant k, hydrolysis of the first acetic ester linkage (Reaction A) [3]: 7e-06 s⁻¹
half-life at 0.4 mmol L^-1 ([4]; hog, [HLE] = 28.0 units mL^-1, MES buffer, pH 6.2, 37 °C, read-out: half-life for the deacetylation (converted)): 18 h

Structure (SMILES): CC(=O)OCC(C#N)(COP(=O)(O)OCC1OC(n2cc(C)c(=O)[nH]c2=O)CC1O)C(=O)NCCc1ccccc1 (stereo not shown) [compound 4]
half-life at 0.4 mmol L^-1 ([2]; hog, HLE 26 units mL^-1, pH 7.5, 37 °C, read-out: half-life for the disappearance (converted)): 47 h

Structure (SMILES): CCOC(=O)C(COC(C)=O)(COP(=O)(OC[C@H]1O[C@@H](n2cc(C)c(=O)[nH]c2=O)C[C@@H]1O)OCC(COC(C)=O)(C(=O)OCC)C(=O)OCC)C(=O)OCC [compound 3, thymidine 5´-bis[3-acetyloxy-2,2-bis(ethoxycarbonyl)propyl]phosphate]
t1/2 Reaction B [5, 6]: 31^a min
t1/2 Reaction C [5, 6]: 31^a min
t1/2 Reaction A [5, 7]: 3.2 min
t1/2 Reaction D [5, 7]: 151 h
half-life for the disappearance [1]: 20 days

Structure (SMILES): CCOC(=O)C(COCOC(C)=O)(COP(=O)(OC[C@H]1O[C@@H](n2cc(C)c(=O)[nH]c2=O)C[C@@H]1O)OCC(COCOC(C)=O)(C(=O)OCC)C(=O)OCC)C(=O)OCC [compound 2, thymidine 5´-bis[3-acetyloxymethoxy-2,2-bis(ethoxycarbonyl)propyl]phosphate]
t1/2 Reaction A [5, 7]: 0.17 min
t1/2 Reaction B [5, 7]: 0.90 min
t1/2 Reaction C [5, 7]: 10.4 min
t1/2 Reaction D [5, 7]: 3.5 h
half-life, first of the consecutive deacetylations ([1]; pH 7.5, 37 °C): 32 h
